Measured values reported in patent publication US4567182A, “Compounds endowed with immunomodulating activity” (Co Pharma Corporation s.r.l., priority 1981, dated 1986).

Key:
T-lymphocytes = test: Ability of T-lymphocytes to form "active" E-rosettes; type: cell-based
Protocol: The effect of the compounds object of this invention on the ability of T-lymphocytes to form "active" E-rosettes, has also been studied (Pasino e coll., Boll. Ist. Sieroter, Mil. 60, 4, 297-301, 1981).
Lymphocytes were incubated at 4° for 24 hours, then isolated and incubated for 90 min. in the presence or absence of different concentrations of the drug prior to the assay. Data were expressed as % of cells forming rosettes: as an example, compound (Ib-2) gave an enhancement of the percentage from 35 to 50%, at concentrations from 1 and 3 μg/ml; higher concentrations, the percentage of active E-rosettes decreased.

[1] = system: PHA stimulated lymphocytes; test: Stimulation by phytohemagglutinin (PHA) of lymphocytes from Hodgkin's disease patients; type: cell-based, human (patients affected by Hodgkin's disease); conditions: for effect on the PHA response: Ib-4 already at 0.1 γ/ml, methisoprinol at 200-400 γ/ml
Excerpt: In FIG. 1, the effects of compound (Ib-4) are shown in comparison with methisoprinol on the stimulation by phytohemagglutinin (PHA) of lymphocytes extracted by patients affected by Hodgkin's disease and off-therapy since, at least, 17 months. The PHA response of lymphocytes of these patients are below normal range.
The in vitro effect of (Ib, 4) and methisoprinol on the stimulation by PHA of lymphocytes was studied by cultivating PHA stimulated lymphocytes in the presence of these compounds at different doses: methisoprinol at 100, 200, 400 γ/ml; (Ib-4) at 0.1, 0.5, 1 and 5 γ/ml.

[2] = system: polymorphonuclear leucocytes; test: Polymorphonuclear (PMN) membrane-stimulated oxidative metabolic activity (superoxide production); type: cell-based
Protocol: In FIG. 2 the results of the study of the effect of (Ib-4) on the polymorphonuclear (PMN) […] membrane-stimulated oxidative metabolic activity are reported: polymorphonuclear leucocytes (2.5×10^4 /ml) in phosphate buffer solution (PBS) were incubated for 15' at 37° C. with ferricytochrome C (1.5 mg/ml) in the presence or absence of superoxide dismutase (SOD) (0.125 mg/ml) after the addition of 50 μl of stimulating agent.
The amount of reduced cytochrome C in che cell free supernatant was determined spectrophotometrically at 550 nm and the O2^- release calculated according to a standard formula. Appropriate control tubes contained fixed doses of (Ib-4) (from 0.01 γ/ml to 200 γ/ml).

[3] = system: spleen cells from BALB/C mice; test: Incorporation of labelled thymidine stimulated by PHA or LPS in spleen cells; type: cell-based, mouse (BALB/C); set-up: Thymid. inc.: unit not given here
Protocol: Ib-4 is also active, at doses ranging from 0.001 to 40 μg/ml, in inhibiting the incorporation of labelled thymidine stimulated by phytohemagglutinin (PHA) or lypopolysaccharides (LPS), in spleen cells from BALB/C mice 8-10 weeks old. The inhibition of the proliferation in vitro is dose-dependent and it is probably due to activation of suppressor cell mechanism. In the following table the results of thymidine incorporation in a 10^6 cells/ml culture have been listed.

[4] = system: autologous lymphocytes stimulated by concanavalin A; test: Suppressor cell effect: proliferative response of autologous lymphocytes stimulated by concanavalin A; type: cell-based, human (healthy volunteers); conditions: 0.1 to 1.5 μg/ml; 48 h drug incubation; concanavalin A 3 days
Protocol: (§1) The effect of (Ib-4) on the suppressor cell has also been studied using lymphocytes from healthy volunteers, incubated for 48 hours with different drug concentrations then washed and incubated either with autologous lymphocytes stimulated by concanavalin A for 3 days or with allogeneic mitomycin-treated lymphocytes for 5 days (Mixed Lymphocytes Reaction): (Ib-4), at concentrations between 0.1 and 1.5 μg/ml, gave an inhibition of the proliferative response of about 60% in comparison with controls.

[5] = system: allogeneic mitomycin-treated lymphocytes; test: Suppressor cell effect: Mixed Lymphocytes Reaction; type: cell-based, human (healthy volunteers); conditions: 0.1 to 1.5 μg/ml; 48 h drug incubation; mixed lymphocytes 5 days
Protocol: as §1

What does the source list for `CC(NC(=O)CCC(=O)OCCn1cnc2c(O)ncnc21)C(=O)O` (racemic) [Ib-2, 6-Hydroxy-9-{2-[2-(1-carboxy)ethylaminocarbonylethyl]carbonyloxyethyl}purine]?
% of cells forming active E-rosettes (T-lymphocytes; 1 and 3 μg/ml, enhanced from 35%, 90 min incubation): 50%; percentage of active E-rosettes at higher concentrations (T-lymphocytes; concentrations higher than 1 and 3 μg/ml): decreased

For `N=C(NCCC[C@H](N)C(=O)O)NC(=O)CCC(=O)OCCn1cnc2c(O)ncnc21` [Ib-4, N-{3-[2-(6-hydroxypurinyl-9)-ethoxycarbonyl]propionyl}-N'-(4-carboxy-4-amino-butyl)guanidine], which minimal effective concentration ([1]; Homo sapiens, Lymphocyte, in vitro, lymphocytes of Hodgkin's disease patients off-therapy, read-out: dose producing enhancement of the PHA response) is on record?
The minimal effective concentration was ≤ 0.1 µg/mL.

And the “effect on the PHA response” value [1]?
The value was “marked enhancement of the PHA response”.

What about the “enhancement in the superoxide production” value ([2]; 1 γ/ml, T-test for paired data) of the same molecule?
The value was “statistically significant enhancement in the superoxide production”.

What about the “O2- production at higher dosages” value ([2]; dosages higher than 1 γ/ml (up to 200 γ/ml)) of the same molecule?
The value was “gradual decrease of the O2^- production”.

And the Thymid. inc. ([3]; LPS (printed LPSD), drug 0.1 μg/ml, control without drug 15631+/-215)?
The Thymid. inc. was 729+/-51.

What about the Thymid. inc. ([3]; LPS, drug 0.001 μg/ml, control without drug 15631+/-215) of the same molecule?
The Thymid. inc. was 4600+/-85.

And the Thymid. inc. ([3]; LPS, drug 0.01 μg/ml, control without drug 15631+/-215)?
The Thymid. inc. was 435+/-113.

What about the Thymid. inc. ([3]; LPS, drug 1 μg/ml, control without drug 15631+/-215) of the same molecule?
The Thymid. inc. was 665+/-19.

What about the Thymid. inc. ([3]; LPS, drug 2.5 μg/ml, control without drug 15631+/-215) of the same molecule?
The Thymid. inc. was 627+/-40.

What about the Thymid. inc. ([3]; LPS, drug 5 μg/ml, control without drug 15631+/-215) of the same molecule?
The Thymid. inc. was 445+/-44.

What about the Thymid. inc. ([3]; LPS, drug 10 μg/ml, control without drug 15631+/-215) of the same molecule?
Its Thymid. inc. is 385+/-38.

What about the Thymid. inc. ([3]; LPS, drug 15 μg/ml, control without drug 15631+/-215) of the same molecule?
Its Thymid. inc. is 405+/-51.

And the Thymid. inc. ([3]; LPS, drug 20 μg/ml, control without drug 15631+/-215)?
Its Thymid. inc. is 385+/-38.

What about the Thymid. inc. ([3]; LPS, drug 40 μg/ml, 10^6 cells/ml, control without drug 15631+/-215) of the same molecule?
Its Thymid. inc. is 329+/-23.

What about the “inhibition of the proliferation in vitro” value ([3]; PHA or LPS stimulated, 0.001 to 40 μg/ml) of the same molecule?
The value was “dose-dependent”.

What about the Thymid. inc. ([3]; PHA, drug 0.001 μg/ml, control without drug 3089+/-177) of the same molecule?
The Thymid. inc. was 840+/-87.

And the Thymid. inc. ([3]; PHA, drug 0.01 μg/ml, control without drug 3089+/-177)?
The Thymid. inc. was 850+/-61.

And the Thymid. inc. ([3]; PHA, drug 0.1 μg/ml, control without drug 3089+/-177)?
The Thymid. inc. was 721+/-77.

And the Thymid. inc. ([3]; PHA, drug 1 μg/ml, control without drug 3089+/-177)?
The Thymid. inc. was 316+/-78.

What about the Thymid. inc. ([3]; PHA, drug 2.5 μg/ml, control without drug 3089+/-177) of the same molecule?
The Thymid. inc. was 250+/-34.

What about the Thymid. inc. ([3]; PHA, drug 5 μg/ml, control without drug 3089+/-177) of the same molecule?
Its Thymid. inc. is 193+/-50.

What about the Thymid. inc. ([3]; PHA, drug 10 μg/ml, control without drug 3089+/-177) of the same molecule?
Its Thymid. inc. is 146+/-19.

What about the Thymid. inc. ([3]; PHA, drug 15 μg/ml, control without drug 3089+/-177) of the same molecule?
The Thymid. inc. was 141+/-40.

What about the Thymid. inc. ([3]; PHA, drug 20 μg/ml, control without drug 3089+/-177) of the same molecule?
Its Thymid. inc. is 241+/-16.

What about the Thymid. inc. ([3]; PHA, drug 40 μg/ml, 10^6 cells/ml, control without drug 3089+/-177) of the same molecule?
Its Thymid. inc. is 159+/-13.

And the “inhibition of the proliferative response in comparison with controls” value [4]?
Its value is “about 60%”.

What about the “inhibition of the proliferative response in comparison with controls” value [5] of the same molecule?
Its value is “about 60%”.

Which results are given for methisoprinol [reference compound]?
effect on the PHA response [1]: a stimulating effect which is less than that produced by (Ib-4); dose producing enhancement of the PHA response ([1]; in vitro, lymphocytes of Hodgkin's disease patients off-therapy): 200 to 400 µg/mL
